Reference: patent publication US20090306093A1, “METHOD FOR TREATING PATIENT HAVING BENIGN PROSTATE HYPERPLASIA” (KAOHSIUNG MEDICAL UNIVERSITY, priority 2008, published 2009)

Experiments:
[1] = test system: phenylephrine (10 μM) pre-contracted rat isolated prostate; assay: Relaxation of phenylephrine pre-contracted rat isolated prostate strips (isometric tension); details: for relaxation: 10 μM, 1 hour
Method: The rat isolated prostate tissue was prepared as previously described with modifications^[10]. Briefly, Wistar rats (300-400 g) were killed with pentobarbital sodium (30 mg/kg) and the ventral part of their prostates were quickly excised. […] O2 and 5% CO2.
Isometric tension was recorded with a force displacement transducer (UGO BASILE, Model 7004, Italy). After the equilibration period, the strips were primed twice by adding 10 μM of the agonist, phenylephrine, to reach 80-100% of maximum contraction. […] The relaxation on rat prostate by KMUP-1 (0.01-100 μM) and tamsulosin (0.001 nM-100 μM) were also tested by their combination with sildenafil (0.1 μM), respectively. In isolated prostate strips, while stable constriction to phenylephrine was reached, sildenafil (0.1 μM) was pre-incubation for 30 minutes, before the cumulative addition of KMUP-1 (0.01-100 μM) or tamsulosin (0.001 nM-100 μM) to isolated prostate strips. In another experiment, to examine the possible mechanism of action of KMUP-1, rat prostates were pretreated with ODQ (1H-[1,2,4]oxadiazolo[4,3-a]quinoxalin-1-one, 10 μM, sGC inhibitor), RP-8pCPT-cGMPs (10 μM, PKG inhibitor), glibenclamide (10 μM, KATP channel blocker), 4-AP (4-aminopyridine, 100 μM, voltage-dependent K^+ channel blocker), apamin (1 μM, Ca^2+-dependent K^+ channel blocker) and charybdotoxin (ChTX) (0.1 μM, Ca^2+-dependent K^+ channel blocker) for 30 minutes before addition of KMUP-1 (100 μM).

a1A-adrenergic receptor = details: data from the reference; cited from earlier work
cGMP = assay: Determination of cGMP in rat isolated prostate (radioimmunoassay); details: 100 μM, 1 hour
Method: Isolated prostate strips from Wistar rats were prepared to determine prostate levels of cGMP and cAMP. Briefly, prostate strips were respectively incubated with KMUP-1 (10-100 μM), sildenafil (100 μM), and zaprinast (100 μM) in 10 mL Tyrode solution aerated with 95% O2 and 5% CO2 for 1 hour. To examine the possible mechanisms of action of KMUP-1, the rat prostate was pretreated with ODQ (10 μM, sGC inhibitor) and SQ22536 (9-(tetrahydro-2-furanyl)-9H-purin-6-amine, 10 μM, adenylyl cyclase inhibitor) for 30 minutes before KMUP-1 was added. After the incubation, the prostate tissues were extracted with 1 mL of 0.1 N HCl. The extracts were then lyophilized for a further measurement of cyclic GMP or cyclic AMP of each sample, using commercially available radioimmunoassay kits (Amersham Pharmacia Biotech, Buckinghamshire, England).

sGCa1 = assay: Western blot of sGCa1 expression in rat prostate; details: KMUP-1 10-100 μM; sildenafil, zaprinast 100 μM; 1 hour
Method: (§1) Prostate strips were incubated with KMUP-1 (10-100 μM), sildenafil (100 μM) and zaprinast (100 μM) in 10 mL Tyrode solution aerated with 95% O2 and 5% CO2 for 1 hour. To examine the possible mechanisms of KMUP-1 action, the rat prostate were pretreated with ODQ (10 μM), SQ22536 (10 μM) and RP-8pCPT-cGMPs (10 μM) for 30 minutes prior to the addition of KMUP-1 (100 μM).
(§2) In order to examine the expression of Rho kinase in prostate, the prostate strips were pre-incubated with phenylephrine (10 μM) for 30 minutes. After a pre-treatment of phenylephrine, KMUP-1 (10-100 μM) and Y-27632 (10 μM) were further incubated for 30 minutes. After the incubation time, the prostate were extracted with protein extraction reagent (Pierce Biotechnology, Inc., Rockford, Ill., USA.). The PZ-HPV-7 cells were incubated with and without KMUP-1 (0.1-10 μM) at 30 minutes, 8 and 24 hours. They were then washed rapidly with ice-cold PBS, incubated with protein extraction reagent, and scraped from the plates. The prostate tissues and cells were sonicated three times for 10 second each time and centrifuged at 13,000 rpm at 4° C. for 30 minutes. The protein concentrations of supernatants were determined, using bovine serum albumin as the standard. Tissue and cell extract protein were then boiled at a ratio of 4:1 with sample buffer (100 mM Tris, pH 6.8, 20% glycerol, 4% SDS, and 0.2% bromphenol blue). 40-60 μg protein was used in this experiment. Electrophoresis was performed using 10 or 12% SDS-polyacrylamide gel electrophoresis and then transferred to nitrocellulose membranes (Millipore Corporation, Billerica, Mass.). The membrane was blocked with Tris-buffered saline (20 mM Tris and 137 mM NaCl, pH 7.6) containing 0.1% Tween 20 (TTBS) and 5% non-fat milk at room temperature for 1 hour, washed with TTBS, and then incubated overnight at 4° C. in the appropriate primary antibody of PKG (Santa Cruz, 1:200), sGCa1 (Santa Cruz, 1:200), PKA (Abcam, 1:1000), ROCK2 (Upstate, 1:1000), and PDE5A (BD Biosciences, 1:1000), p21 (Upstate, 1:1000). The membranes were washed in TTBS before being incubated with horseradish peroxidase-conjugated antibody against mouse, goat, or rabbit IgG (Santa Cruz, 1:1000) for 1 hour. The membrane was then washed in TTBS and developed with the enhanced chemiluminescence (ECL) for the detection of the specific antigen. The intensity of the bands was measured by densitometry.

PKG = assay: Western blot of PKG expression in rat prostate; details: KMUP-1 10, 100 μM; sildenafil, zaprinast 100 μM
Method: as §1, §2

ROCK2 = assay: Western blot of phenylephrine-induced Rho kinase (ROCK2) expression in rat prostate; details: KMUP-1 10, 100 μM; Y-27632 10 μM; phenylephrine 10 μM
Method: as §2, with “The membrane was blocked with Tris-buffered saline (20 mM Tris and 137 mM NaCl, pH 7.6) containing 0.1% Tween 20 (TTBS) and 5% non-fat milk at room temperature for 1 hour, washed with TTBS, and then incubated overnight at 4° C. in the appropriate primary antibody of PKG (Santa Cruz, 1:200), sGCa1 (Santa Cruz, 1:200), PKA (Abcam, 1:1000), ROCK2 (Upstate, 1:1000), and PDE5A (BD Biosciences, 1:1000), p21 (Upstate, 1:1000). The membranes were washed in TTBS before being incubated with horseradish peroxidase-conjugated antibody against mouse, goat, or rabbit IgG (Santa Cruz, 1:1000) for 1 hour. The membrane was then washed in TTBS and developed with the enhanced chemiluminescence (ECL) for the detection of the specific antigen.” left out

[2] = phenylephrine 10 μM pre-contracted

Compound	relaxation [1, 2]	Receptor Affinity (pKi) a1A (a1A-adrenergic receptor)	cGMP levels (cGMP)	expression of sGCa1 (sGCa1)	expression of PKG (PKG)	also measured
CCOc1ccccc1OCCN[C@H](C)Cc1ccc(OC)c(S(N)(=O)=O)c1 [tamsulosin, reference compound]	107.50±6.76%	9.7	–	–	–	relaxation activity ([1]; 100 μM combined with sildenafil 0.1 μM): 140.00±10.14%; relaxation ability ([1]; 100 μM, phenylephrine 10 μM pre-contracted): 118.00±10.79%; Selective Ratio a1A/a1B (a1A-adrenergic receptor): 6.3; Selective Ratio a1A/a1D (a1A-adrenergic receptor): 0.2
Nc1nc2c(nc(Sc3ccc(Cl)cc3)n2C2O[C@@H]3COP(=O)(O)O[C@H]3[C@H]2O)c(=O)[nH]1 (stereo in doubt) [8-pCPT-cGMP, reference compound]	35.00±4.40%	–	–	–	–	–
CCCOc1ccccc1-c1nc2nn[nH]c2c(=O)[nH]1 [zaprinast, reference compound]	79.00±5.00%	–	2.23±0.24 pmol mg^−1 protein	do not significantly induce	significantly induce	–
C[C@@H](N)[C@H]1CC[C@H](C(=O)Nc2ccncc2)CC1 [Y-27632, reference compound]	–	–	–	–	–	phenylephrine-induced Rho kinase expression (ROCK2): protected against phenylephrine-induced Rho kinase expression
CCCc1nn(C)c2c(=O)[nH]c(-c3cc(S(=O)(=O)N4CCN(C)CC4)ccc3OCC)nc12 [sildenafil, reference compound]	50.00±6.37%	–	3.20±0.61 pmol mg^−1 protein	do not significantly induce	significantly induce	relaxation ability ([1]; 0.1 μM, phenylephrine 10 μM pre-contracted): 21.50±2.12%; relaxation ability ([1]; fourth value of the sentence, concentration not given): 78.00±8.02%
COc1cc2nc(N3CCN(C(=O)C4COc5ccccc5O4)CC3)nc(N)c2cc1OC (centres unmarked) [doxazosin, reference compound]	73.00±2.8%	8.56	–	–	–	–
